From patent US8614211B2, “Certain chemical entities, compositions, and methods” (NeuPharma, Inc., priority 2011, dated 2013) come the findings set out here.

For one assay, the system named is A549 cells. Briefly: Inhibition of cell growth in tumor cells, MTT assay. It is filed as cell-based. As to conditions: Homo sapiens, A549, 72 h, read-out: A549 cell IC50. The protocol:
Inhibition of cell growth by compounds was measured using MTT assay (Mosmann, T., Journal of Immunological Methods, 1983, 65, 55-63). Tumor cell lines were purchased from ATCC (American Type Culture Collection, Manassas, Va.). All cell lines were maintained in RPMI 1640 (Hyclone) supplemented with 10% fetal bovine serum (FBS, Hyclone), glutamine (2 mM, Hyclone), and antibiotics (penicillin 100 U/mL and streptomycin 50 μg/mL) at 37° C. in a humidified atmosphere of 5% CO2 in air. Taxol (positive control, Sigma) and compounds were dissolved in DMSO (Sigma), and the final concentration of DMSO in the medium was 1%. Tumor cells were plated in 96-well plates at densities from 4000 cells/well of a 96-well plate and allowed to adhere/grow for 24 h. They were then treated with various concentrations of drug for 72 h. 3-(4,5-Dimethylthiazol-2-yl)-2,5-diphenyltetrazolium bromide (MTT, Sigma) was used to determine the number of viable cells at the time of compound addition and the number of cells remaining after 72 h compound exposure. The number of cells remaining after 72 h was compared to the number of viable cells at the time of compound addition by measuring the absorbance at 570 nm, allowing for the calculation of growth inhibition.
All concentrations of compounds were tested in triplicate and controls were averaged over 4 wells. IC50 was calculated by plotting the concentration of compound vs the percentage of inhibition in treated wells using GraphPad Prism 5. […]
In general terms: Formazan colour is commonly taken as a measure of viable cells.
In general, IC50 refers to the midpoint of a concentration-inhibition curve. `COc1ccc(C[C@H]2COC(=O)[C@@H]2Cc2ccc(OC(=O)N3CC[C@H](N)C3)c(OC)c2)cc1OC` [(S)-4-(((3R,4R)-4-(3,4-dimethoxybenzyl)-2-oxotetrahydrofuran-3-yl)methyl)-2-methoxyphenyl 3-aminopyrrolidine-1-carboxylate]: the half-inhibitory concentration (IC50) was determined as 923 nM.

As for `COc1ccc(C[C@H]2COC(=O)[C@@H]2Cc2ccc(OC(=O)N3CCNCC3)c(OC)c2)cc1OC` [4-(((3R,4R)-4-(3,4-dimethoxybenzyl)-2-oxotetrahydrofuran-3-yl)methyl)-2-methoxyphenyl piperazine-1-carboxylate], the IC50 worked out at 799 nM.

As to `COCCN1CCN(C(=O)Oc2ccc(C[C@H]3C(=O)OC[C@@H]3Cc3ccc(OC)c(OC)c3)cc2OC)CC1` [4-(((3R,4R)-4-(3,4-dimethoxybenzyl)-2-oxotetrahydrofuran-3-yl)methyl)-2-methoxyphenyl 4-(2-methoxyethyl)piperazine-1-carboxylate], the IC50 is 788 nM.

Regarding `COCCN(C)C(=O)Oc1ccc(C[C@H]2C(=O)OC[C@@H]2Cc2ccc(OC)c(OC)c2)cc1OC` [4-(((3R,4R)-4-(3,4-dimethoxybenzyl)-2-oxotetrahydrofuran-3-yl)methyl)-2-methoxyphenyl (2-methoxyethyl)(methyl)carbamate], the IC50 came to 687 nM.

With `COc1ccc(C[C@H]2COC(=O)[C@@H]2Cc2ccc(OC(=O)N(C)C)c(OC)c2)cc1OC` [4-(((3R,4R)-4-(3,4-dimethoxybenzyl)-2-oxotetrahydrofuran-3-yl)methyl)-2-methoxyphenyl dimethylcarbamate], the IC50 was 521 nM.

On to `COc1ccc(C[C@H]2COC(=O)[C@@H]2Cc2ccc(OC(=O)N(C)CCO)c(OC)c2)cc1OC` [4-(((3R,4R)-4-(3,4-dimethoxybenzyl)-2-oxotetrahydrofuran-3-yl)methyl)-2-methoxyphenyl (2-hydroxyethyl)(methyl)carbamate], for which the IC50 was determined as 1070 nM.

As to `COc1ccc(C[C@H]2COC(=O)[C@@H]2Cc2ccc(OC(=O)N3CCN(C)CC3)c(OC)c2)cc1OC` [4-(((3R,4R)-4-(3,4-dimethoxybenzyl)-2-oxotetrahydrofuran-3-yl)methyl)-2-methoxyphenyl 4-methylpiperazine-1-carboxylate], the IC50 turned out to be 850 nM.

Take `COc1ccc(C[C@H]2COC(=O)[C@@H]2Cc2ccc(OC(=O)N(C)CCN(C)C)c(OC)c2)cc1OC` [4-(((3R,4R)-4-(3,4-dimethoxybenzyl)-2-oxotetrahydrofuran-3-yl)methyl)-2-methoxyphenyl (2-(dimethylamino)ethyl)(methyl)carbamate]: the concentration for half-maximal inhibition (IC50) is 1020 nM.

The same assay, now with this note: Homo sapiens; MTT assay, 72 h compound exposure, A549 cells; read-out: A549 cell IC50.
On to `COc1ccc(C[C@H]2COC(=O)[C@@H]2Cc2ccc(OC(=O)N3CCCC3)c(OC)c2)cc1OC` [4-(((3R,4R)-4-(3,4-dimethoxybenzyl)-2-oxotetrahydrofuran-3-yl)methyl)-2-methoxyphenyl pyrrolidine-1-carboxylate], for which the IC50 was found to be 785 nM.

With `COc1ccc(C[C@H]2COC(=O)[C@@H]2Cc2ccc(OC(=O)N3CCCCC3)c(OC)c2)cc1OC` [4-(((3R,4R)-4-(3,4-dimethoxybenzyl)-2-oxotetrahydrofuran-3-yl)methyl)-2-methoxyphenyl piperidine-1-carboxylate], the concentration for half-maximal inhibition (IC50) turned out to be 659 nM.

As to `COc1ccc(C[C@H]2COC(=O)[C@@H]2Cc2ccc(OC(=O)N3CCOCC3)c(OC)c2)cc1OC` [4-(((3R,4R)-4-(3,4-dimethoxybenzyl)-2-oxotetrahydrofuran-3-yl)methyl)-2-methoxyphenyl morpholine-4-carboxylate], the IC50 is 767 nM.

Regarding `COc1ccc(C[C@H]2COC(=O)[C@@H]2Cc2ccc(OC(=O)N3CC[C@@H](NC(=O)OC(C)(C)C)C3)c(OC)c2)cc1OC` [(R)-4-(((3R,4R)-4-(3,4-dimethoxybenzyl)-2-oxotetrahydrofuran-3-yl)methyl)-2-methoxyphenyl 3-((tert-butoxycarbonyl)amino) pyrrolidine-1-carboxylate], the IC50 is 585 nM.

For the compound `COc1ccc(C[C@H]2COC(=O)[C@@H]2Cc2ccc(OC(=O)N3CC[C@@H](O)C3)c(OC)c2)cc1OC` [(R)-4-(((3R,4R)-4-(3,4-dimethoxybenzyl)-2-oxotetrahydrofuran-3-yl)methyl)-2-methoxyphenyl 3-hydroxypyrrolidine-1-carboxylate], the IC50 is 587 nM.

As for `COc1ccc(C[C@H]2COC(=O)[C@@H]2Cc2ccc(OC(=O)N3CC[C@H](O)C3)c(OC)c2)cc1OC` [(S)-4-(((3R,4R)-4-(3,4-dimethoxybenzyl)-2-oxotetrahydrofuran-3-yl)methyl)-2-methoxyphenyl 3-hydroxypyrrolidine-1-carboxylate], the IC50 was determined as 841 nM.
